In patent US20060241031A1 (priority 2003, published 2006):
Read-outs that look alike come from different tables or passages of the source.

Tests used:
AP1 bacteria [1] = test system: AP1 bacteria
Description: Bacterial growth assay—AP1 bacteria were grown to stationary phase in TH broth. 200 μl of TH was inoculated with 5 μl of the bacterial suspension in 96-well plates (Falcon) at 37° C. At early logarithmic phase various amounts of LL-37 was added and growth was followed by measuring the absorbance at 490 nm (using a BioRad 550 microplate reader). The amount of protein SIC in the growth medium was estimated by ELISA (see below).

M1 protein = experiment: Indirect ELISA, binding of antibacterial peptides to coated M1 protein (control); design: species or system S. pyogenes; conditions: M1 protein applied to plastic wells as control
protein SIC [2] = conditions: SIC applied to plastic wells, peptide added, detected with antibodies
protein SIC [3] = conditions: peptides on Immobilon filters probed with 125I-labelled SIC from M1 strain AP1
Description: Slot-binding and SDS-polyacrylamide gel electrophoresis—Peptides were applied to polyvinylidene difluoride (PVDF) membranes (Immobilon, Millipore) using a Milliblot-D system (Millipore). Membranes were blocked in TBS (0.05 M Tris-HCl, pH 7.5, 0.15 M NaCl) containing 3% bovine serum albumin (SA), incubated with ^125I-labelled protein SIC for 3 h, and washed with TBS containing 0.05% Tween-20. Autoradiography was carried out using Kodak x-Omat AR films and regular intesifying screens.

AP1 bacteria [4] = test system: AP1 bacteria; remark: listed apart in the source
Description: (§1) Antimicrobial assay—AP1 bacteria were grown to mid-log phase in TH broth, washed and diluted in 10 mM Tris-HCl, pH 7.5, containing 5 mM glucose. 50 μl bacteria (2×10^6 colony forming units (cfu)/ml) were incubated together with α-defensin or LL-37 at various concentrations for 2 h at 37° C. In subsequent experiments, bacteria were incubated with α-defensin and LL-37 at a concentration of 448 nM together with different concentrations of protein SIC or M1 protein and the reactions were carried out for 2 h (α-defensin) or 1 h (LL-37). To quantitate the bactericidal activity serial dilutions of the incubation mixtures were plated on TH agar, incubated overnight at 37° C., and the number of cfus were determined.

LL-37 [5] = target: T1, LL-37 (Homo sapiens, UniProt P49913); experiment: Antimicrobial assay, inhibition of bactericidal effect of LL-37; type: cell-based
T1 construct: LL-37, […]; (Mw 4492) was synthesized by Innovagen AB; purchased Innovagen AB, Lund, Sweden; host or cells: chemical synthesis
T1 sequence (P49913 134-170 limits assumed): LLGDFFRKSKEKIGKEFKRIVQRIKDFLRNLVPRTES
Description: as §1

α-defensin = target: T2, α-defensin (Homo sapiens, UniProt P59665); experiment: Antimicrobial assay, inhibition of bactericidal effect of α-defensin; type: cell-based
T2 construct: α-defensin (HNP-1), […]; (Mw 3442) was purchased from Sigma; purchased Sigma
T2 sequence (P59665 65-94 limits assumed): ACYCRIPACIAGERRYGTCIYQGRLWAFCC
Description: as §1

LL-37 [6] = target: T1, LL-37; experiment: Indirect ELISA, SIC homologues coated, binding of LL-37; conditions: purified SIC homologues on microtiter plates; M1 protein negative control
LL-37 (human) = experiment: cell-based or functional assay

## human antibacterial peptide LLGDFFRKSKEKIGKEFKRIVQRIKDFLRNLVPRTES (Mw 4492), synthesized by Innovagen AB [LL-37]
AP1 bacteria [1]; 11.1 μM compared to 0.2 μM
  fold increase of concentration to kill 50% with secreted SIC versus washed bacteria: more than 50 times
AP1 bacteria [1]; read-out: concentration of LL-37 required to kill 50% of the bacteria, AP1 at early logarithmic growth phase, SIC 4-5 μg/ml growth medium
  EC50: 11.1 µM
M1 protein
  interaction with M1 protein (ELISA, FIG. 1B): at background level
Protein SIC [2]
  affinity for SIC (ELISA, FIG. 1B): showed affinity
Protein SIC [3]
  interaction with 125I-labelled SIC (slot-binding, FIG. 1A): interacts
AP1 bacteria [4]; AP1 washed and resuspended in buffer, no SIC present, 2 h 37° C.
  concentration required for 100% killing: approximately 0.4 μM
AP1 bacteria [4]; read-out: concentration of LL-37 required to kill 50% of the bacteria, bacteria washed to remove SIC before addition of LL-37
  EC50: 0.2 µM

## SIC: streptococcal inhibitor of complement, purified from S. pyogenes strain AP1 of serotype M1
LL-37 [5]; LL-37 0.448 μM, AP1 bacteria, M1 protein at a maximum of 0.72 μM
  blocking of antibacterial activity of LL-37: blocks
LL-37 [5]; from inhibition curves, FIG. 2 right panel
  efficiency in blocking LL-37 relative to α-defensin: about ten
α-defensin; from inhibition curves FIG. 3C, both peptides at 448 nM
  potency in blocking α-defensin and LL-37 relative to the M12 and M55 homologues: 5-10 times
α-defensin; α-defensin 0.448 μM, AP1 bacteria, 2 h, M1 protein at a maximum of 0.72 μM
  blocking of antibacterial activity of α-defensin: blocks
LL-37 [6]
  binding of LL-37 (ELISA, FIG. 3B): showed binding of LL-37 clearly above M1 protein

## protein SIC purified from S. pyogenes strain AP1 (serotype M1)
LL-37 (human)
  efficiency in blocking LL-37 against blocking α-defensin, from inhibition curves: 10 times
  fold rise of the LL-37 concentration required to kill 50% of the bacteria, with secreted SIC against washed bacteria: 50 times
